For 33 compounds, Ki results are on record in ChEMBL document CHEMBL1145227, “5-Amidinobenzo[b]thiophenes as dual inhibitors of factors IXa and Xa” (Bioorg Med Chem Lett, 2005).

One experiment addresses Trypsin (Homo sapiens, UniProt P07477+P07478+P35030). In words: Inhibitory constant against human trypsin. Format: protein assay.
The next experiment deals with Coagulation factor X (Homo sapiens, UniProt P00742). In words: Inhibitory constant against human purified Coagulation factor Xa (fXa).
The target of another experiment is Prothrombin (Homo sapiens, UniProt P00734). In words: Inhibitory constant against human thrombin.
In the next experiment the target is Coagulation factor IX (Homo sapiens, UniProt P00740). In words: Inhibitory constant against human purified Coagulation factor IXa (fIXa).
Sequence of Coagulation factor IX (P00740 47-191 limits assumed): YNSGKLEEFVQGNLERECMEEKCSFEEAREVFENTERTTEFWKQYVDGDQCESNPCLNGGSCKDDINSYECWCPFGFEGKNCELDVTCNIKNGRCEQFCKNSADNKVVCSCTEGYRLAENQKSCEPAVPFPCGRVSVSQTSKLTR
Sequence of Coagulation factor IX (P00740 227-461 limits assumed): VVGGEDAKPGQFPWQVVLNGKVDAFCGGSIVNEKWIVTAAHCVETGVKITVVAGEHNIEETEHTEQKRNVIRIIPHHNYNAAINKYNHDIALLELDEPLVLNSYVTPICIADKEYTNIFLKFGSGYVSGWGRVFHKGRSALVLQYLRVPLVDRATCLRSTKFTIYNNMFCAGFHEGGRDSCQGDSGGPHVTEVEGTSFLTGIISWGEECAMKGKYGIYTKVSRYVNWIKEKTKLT

Sequence of Coagulation factor X (P00742 41-179 limits assumed): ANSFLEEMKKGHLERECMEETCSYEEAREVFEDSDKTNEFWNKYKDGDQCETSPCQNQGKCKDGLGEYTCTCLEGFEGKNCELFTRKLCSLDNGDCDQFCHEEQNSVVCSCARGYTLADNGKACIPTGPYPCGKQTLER
Sequence of Coagulation factor X (P00742 235-488 limits assumed): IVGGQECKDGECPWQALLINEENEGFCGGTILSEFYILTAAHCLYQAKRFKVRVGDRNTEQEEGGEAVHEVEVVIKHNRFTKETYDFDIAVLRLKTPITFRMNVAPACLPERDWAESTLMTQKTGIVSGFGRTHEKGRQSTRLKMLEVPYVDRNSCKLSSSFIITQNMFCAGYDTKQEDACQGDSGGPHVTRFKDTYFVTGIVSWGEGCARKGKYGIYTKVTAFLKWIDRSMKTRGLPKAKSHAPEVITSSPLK

As usually defined, the Ki is a measure of affinity in units of concentration, obtained from inhibition or displacement. A higher Ki goes with weaker binding. Consider `CCC(C(=O)Nc1ccc(-n2cnc3ccccc32)cc1)c1csc2ccc(C(=N)N)cc12.O=C(O)C(F)(F)F` (centres undefined), for which the Ki on Trypsin is 270 nM; on Coagulation factor X, 71 nM; at Prothrombin, greater than 270 nM; at Coagulation factor IX, 220 nM.
On to `CCOC(=O)[C@@H]1CCCCC1NC(=O)[C@@H](Cc1ccccc1)c1csc2ccc(C(=N)N)cc12` (some centres undefined), for which the Ki on Coagulation factor X came to 180 nM; on Coagulation factor IX it was 120 nM.
In the case of `N=C(N)c1ccc2[nH]cc(C(Cc3ccccc3)C(=O)Nc3ccc(-n4cnc5ccccc54)cc3F)c2c1.O=C(O)C(F)(F)F` (centres undefined), the values for the Ki on Trypsin and at Prothrombin were 340 nM and 13000 nM, respectively.
Regarding `COC(=O)[C@@H]1CCCCC1NC(=O)[C@@H](Cc1ccccc1)c1csc2ccc(C(=N)N)cc12` (some centres undefined), the Ki worked out at 120 nM on Coagulation factor X and 140 nM at Coagulation factor IX.
In the case of `N=C(N)c1ccc2scc(C(Cc3ccccc3)C(=O)Nc3ccc(S(=O)(=O)Nc4ccc(Cl)nn4)cc3)c2c1` (centres undefined), the figures for the Ki at Coagulation factor X and on Coagulation factor IX were 5360 nM and 930 nM, respectively.
On the same counts, the results for `N=C(N)c1ccc2scc(C(Cc3ccccc3)C(=O)Nc3ccc(-n4ccc(C(F)(F)F)n4)cc3)c2c1` (centres undefined) are 410 nM and 130 nM.
On the same counts, the results for `COC(=O)[C@H]1CCCCC1NNC(=O)[C@H](Cc1ccccc1)c1csc2ccc(C(=N)N)cc12` (some centres undefined) are 270 nM and 280 nM.
On the same counts, the results for `COC(=O)[C@H]1CCCCC1NNC(=O)[C@@H](Cc1ccccc1)c1csc2ccc(C(=N)N)cc12` (some centres undefined) are greater than 9000 nM and 41300 nM.
`CCOC(=O)[C@@H]1CCCCC1NC(=O)C(Cc1ccccc1)C1=CS(=O)(=O)c2ccc(C(=N)N)cc21` (some centres undefined): the Ki on Trypsin was greater than 4200 nM; on Coagulation factor X, greater than 9000 nM; on Coagulation factor IX, 8530 nM.
Turning to `Cc1ccc(F)cc1NC(=O)C(Cc1ccccc1)c1csc2ccc(C(=N)N)cc12` (centres undefined), the Ki on Coagulation factor X was greater than 8000 nM; on Coagulation factor IX it was 960 nM.
On the same counts, the results for `N#Cc1ccc(NC(=O)C(Cc2ccccc2)c2csc3ccc(C(=N)N)cc23)cc1` (centres undefined) are greater than 8000 nM and 1730 nM.
The corresponding values for `COC(=O)[C@@H]1CCCCC1NNC(=O)C(Cc1ccccc1)c1csc2ccc(C(=N)N)cc12` (some centres undefined) are 90 nM and 500 nM.
On the same counts, the results for `CC1CCC(NC(=O)C(Cc2ccccc2)c2csc3ccc(C(=N)N)cc23)CC1` (centres undefined) are 3240 nM and 580 nM.
On to `N=C(N)c1ccc2scc([C@H](Cc3ccccc3)C(=O)NC3CCCC[C@H]3C(=O)O)c2c1` (some centres undefined), for which the Ki at Coagulation factor X was 200 nM; on Coagulation factor IX it was 3500 nM.
Take `N=C(N)c1ccc2scc(C(Cc3cccc4ccccc34)C(=O)Nc3ccc(-n4cnc5ccccc54)cc3)c2c1.O=C(O)C(F)(F)F` (centres undefined): the Ki at Trypsin was 3900 nM; at Coagulation factor X, 740 nM; at Prothrombin, greater than 6300 nM; at Coagulation factor IX it was 230 nM.
For `CCOC(=O)[C@@H]1CCCCC1NC(=O)[C@@H](Cc1ccccc1)c1cccc2ccc(C(=N)N)cc12` (some centres undefined), the figures for the Ki on Trypsin, on Coagulation factor X and at Coagulation factor IX were greater than 4200 nM, 530 nM and 240 nM, respectively.
Take `COC(=O)[C@@H]1CCCCC1NC(=O)C(Cc1ccccc1)c1c[nH]c2ccc(C(=N)N)cc12` (some centres undefined): the Ki came out at 1500 nM on Trypsin, 19 nM at Coagulation factor X and 340 nM on Coagulation factor IX.
For the compound `N=C(N)c1ccc2scc(C(CC(=O)Nc3ccc(-n4cnc5ccccc54)cc3)Cc3ccccc3)c2c1.O=C(O)C(F)(F)F` (centres undefined), the inhibitory constant (Ki) was greater than 4200 nM at Trypsin, 280 nM at Coagulation factor X, 4200 nM at Prothrombin and 1250 nM at Coagulation factor IX.
For the compound `N=C(N)c1ccc2scc(C(Cc3ccccc3)C(=O)Nc3ccc(-n4cnc(-c5ccccc5)c4)cc3)c2c1.O=C(O)C(F)(F)F` (centres undefined), the Ki on Trypsin is greater than 4200 nM; on Coagulation factor X, 2020 nM; at Prothrombin, greater than 6300 nM; on Coagulation factor IX, 390 nM.
On to `COC(=O)[C@H]1CCCCC1NNC(=O)C(Cc1ccccc1)c1csc2ccc(C(=N)N)cc12` (some centres undefined), for which the Ki turned out to be 300 nM at Coagulation factor X and 310 nM at Coagulation factor IX.
On to `N=C(N)c1ccc2scc(C3(C(=O)Nc4ccc(-n5cnc6ccccc65)cc4)CC3)c2c1.O=C(O)C(F)(F)F`, for which the inhibition constant Ki at Trypsin was 60 nM; at Coagulation factor X it was 22 nM; on Prothrombin it was 390 nM; on Coagulation factor IX, 4900 nM.
For `N=C(N)c1ccc2scc([C@@H](Cc3ccccc3)C(=O)Nc3ccc4ncsc4c3)c2c1`, the inhibition constant (Ki) on Coagulation factor X turned out to be 2700 nM; at Coagulation factor IX, 480 nM.
The corresponding values for `N=C(N)c1ccc2scc(C(Cc3ccccc3)C(=O)Nc3ccc4ncsc4c3)c2c1` (centres undefined) are greater than 8000 nM and 780 nM.
For `N=C(N)c1ccc2[nH]cc(C(Cc3ccc(N)cc3)C(=O)Nc3ccc(-n4cnc5ccccc54)cc3)c2c1.O=C(O)C(F)(F)F` (centres undefined), the Ki at Trypsin was greater than 4200 nM; at Prothrombin it was 4200 nM.
As for `N=C(N)c1ccc2[nH]cc(C(Cc3ccccc3)C(=O)Nc3ccc(-c4ccccc4S(N)(=O)=O)cc3)c2c1` (centres undefined), the Ki on Trypsin came out at 150 nM; at Prothrombin, 600 nM.
As to `N=C(N)c1ccc2scc([C@H](Cc3ccccc3)C(=O)NC3CCCC[C@H]3C(=O)NCc3ccccc3)c2c1` (some centres undefined), the Ki on Coagulation factor X was greater than 9000 nM; at Coagulation factor IX it was greater than 32000 nM.
`CCOC(=O)[C@@H]1CCCCC1NC(=O)C(Cc1ccccc1)c1coc2ccc(C(=N)N)cc12` (some centres undefined): the Ki on Trypsin is greater than 4200 nM; at Coagulation factor X it was 270 nM; on Coagulation factor IX, 1190 nM.
As to `N=C(N)c1ccc2scc(C(Cc3ccccc3)C(=O)Nc3ccc(Oc4ccccc4)cc3)c2c1` (centres undefined), the Ki on Coagulation factor X came out at 450 nM; at Coagulation factor IX it was 250 nM.
As to `N=C(N)c1ccc2scc(C(Cc3ccc(N)cc3)C(=O)Nc3ccc(-n4cnc5ccccc54)cc3)c2c1.O=C(O)C(F)(F)F` (centres undefined), the inhibition constant Ki at Trypsin is greater than 4200 nM; on Coagulation factor X it was 47 nM; on Prothrombin it was 4200 nM; at Coagulation factor IX it was 74 nM.
On to `N=C(N)c1ccc2scc(C(Cc3ccccc3)C(=O)Nc3ccc(-n4cnc5ccccc54)cc3)c2c1.O=C(O)C(F)(F)F` (centres undefined), for which the Ki at Trypsin was 1020 nM; at Coagulation factor X, 120 nM; on Prothrombin it was greater than 6300 nM; at Coagulation factor IX, 98 nM.
On to `N=C(N)c1ccc2scc([C@H](Cc3ccccc3)C(=O)NC3CCCC[C@H]3C(=O)NCC(N)=O)c2c1` (some centres undefined), for which the Ki at Coagulation factor X turned out to be 65 nM; at Coagulation factor IX, 280 nM.
Turning to `N=C(N)c1ccc2scc(C(Cc3ccccc3)C(=O)Nc3ccc4ncsc4c3)c2c1` (single isomer, unassigned), the Ki on Coagulation factor X amounted to 5700 nM; on Coagulation factor IX, 14200 nM.
The corresponding values for `CCNC(=O)[C@@H]1CCCCC1NC(=O)[C@@H](Cc1ccccc1)c1csc2ccc(C(=N)N)cc12` (some centres undefined) are 130 nM and 430 nM.
